Data reported in patent US6783769B1, “Transdermal therapeutic system TTS containing tolterodine” (Schwarz Pharma AG, priority 1999, dated 2004).
Read-outs that look alike come from different tables or passages of the source.

Experiments:
[1] = Rate of dermal penetration, deuterated versus non-deuterated tolterodine (general statement); format: in vitro ADME; details: compared with non-deuterated tolterodine
[2] = oral application, cited from earlier work

[2H]C([2H])([2H])c1ccc(O)c(C(CCN(C(C)C)C(C)C)c2ccccc2)c1 (stereo not drawn) [deuterated tolterodine, 2-(3-diisopropylamino-1-phenylpropyl)-4-[^2H3]methyl-phenol]
rate of dermal penetration [1]: considerably increased

Cc1ccc(O)c(C(CCN(C(C)C)C(C)C)c2ccccc2)c1 (stereo not drawn) [tolterodine, N,N-diisopropyl-3-(2-hydroxy-5-methylphenyl)-3-phenylpropylamine]
absolute bioavailability ([2]; rapid metabolisers): 17%
absolute bioavailability ([2]; slow metabolisers): 65%
